Assay results published in ChEMBL document CHEMBL1149471, “Pharmacophore-based virtual screening: the discovery of novel methionyl-tRNA synthetase inhibitors” (Bioorg Med Chem Lett, 2006).

Target: Methionine--tRNA ligase (Escherichia coli K-12, UniProt P00959)
Assay: Inhibition of Escherichia coli MetRS assessed as decrease in [35S]methionyl tRNAMet production by SPA

Sequence of Methionine--tRNA ligase (P00959 whole entry): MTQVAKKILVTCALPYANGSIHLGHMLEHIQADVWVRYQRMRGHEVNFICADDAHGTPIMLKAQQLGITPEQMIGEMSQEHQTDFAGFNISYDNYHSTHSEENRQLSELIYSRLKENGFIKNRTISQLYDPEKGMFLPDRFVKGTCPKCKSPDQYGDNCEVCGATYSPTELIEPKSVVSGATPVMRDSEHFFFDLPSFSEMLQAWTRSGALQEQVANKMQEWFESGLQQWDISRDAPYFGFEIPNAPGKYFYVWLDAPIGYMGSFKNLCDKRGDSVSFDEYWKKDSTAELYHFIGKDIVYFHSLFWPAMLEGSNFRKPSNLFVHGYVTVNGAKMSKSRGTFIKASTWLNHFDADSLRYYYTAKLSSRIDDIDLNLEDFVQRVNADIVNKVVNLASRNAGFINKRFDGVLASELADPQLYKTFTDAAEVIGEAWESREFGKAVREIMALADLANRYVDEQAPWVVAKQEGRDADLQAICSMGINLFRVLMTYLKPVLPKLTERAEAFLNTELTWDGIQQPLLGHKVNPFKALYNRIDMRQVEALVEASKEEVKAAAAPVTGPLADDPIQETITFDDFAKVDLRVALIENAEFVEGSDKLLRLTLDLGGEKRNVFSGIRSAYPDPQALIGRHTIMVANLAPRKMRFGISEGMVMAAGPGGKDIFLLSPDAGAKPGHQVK

IC50 [µM] | SMILES
30.5 | O=C(CC(=O)Nc1ccccc1C(=O)O)Nc1nc2ccc(Br)cc2s1
0.237 | O=C(CNC(=O)c1cccs1)N/N=C/c1ccc(C(=O)O)cc1
47.7 | NS(=O)(=O)c1ccc(CCNC(=S)Nc2cccc(C(F)(F)F)c2)cc1
22.8 | O=C(CNC(=O)c1cccc(Br)c1)N/N=C/c1ccc(C(=O)O)cc1
